The source of these data is patent publication US20210228545A1, “METHODS OF TREATING CONDITIONS RELATED TO THE S1P1 RECEPTOR” (Arena Pharmaceuticals, Inc., priority 2018, published 2021).

In one data set the target is T1, OATP1B1 (Homo sapiens, UniProt Q9Y6L6).
T1 sequence (Q9Y6L6 1-691): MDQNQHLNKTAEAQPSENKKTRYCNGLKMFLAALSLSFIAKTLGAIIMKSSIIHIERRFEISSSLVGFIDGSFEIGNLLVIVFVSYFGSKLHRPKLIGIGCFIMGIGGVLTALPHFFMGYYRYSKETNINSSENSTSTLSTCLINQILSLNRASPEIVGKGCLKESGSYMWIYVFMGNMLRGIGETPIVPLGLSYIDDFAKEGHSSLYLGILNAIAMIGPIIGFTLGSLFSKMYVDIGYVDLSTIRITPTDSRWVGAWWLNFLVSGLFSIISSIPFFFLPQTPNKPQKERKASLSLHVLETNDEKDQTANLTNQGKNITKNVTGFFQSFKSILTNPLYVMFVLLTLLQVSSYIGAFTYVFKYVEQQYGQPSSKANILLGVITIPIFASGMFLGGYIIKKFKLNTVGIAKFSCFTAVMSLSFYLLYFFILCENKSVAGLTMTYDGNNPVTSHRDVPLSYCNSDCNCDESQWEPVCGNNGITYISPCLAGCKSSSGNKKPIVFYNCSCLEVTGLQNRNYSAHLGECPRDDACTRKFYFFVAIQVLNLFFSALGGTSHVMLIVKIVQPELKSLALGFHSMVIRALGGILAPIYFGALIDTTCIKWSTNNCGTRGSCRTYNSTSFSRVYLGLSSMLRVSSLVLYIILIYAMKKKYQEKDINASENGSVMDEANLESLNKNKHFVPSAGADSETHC
The experiment in a line: Transporter inhibition, HEK293 cells.

The next data set concerns the target P-gp (Homo sapiens, UniProt P08183).
For data set [1], the system named is peripheral blood lymphocyte (PBL) counts. The experiment in a line: Phase 1 single dosing study: peripheral blood lymphocyte counts. The class given is in vivo, human. As for the experimental part: Compound 1 was administered as the L-arginine salt.
There were no other clinically significant safety issues with respect to vital signs, ECGs, pulmonary function tests, ophthalmoscopy, or clinical laboratory tests with the exception of expected pharmacological effects on peripheral blood lymphocyte counts. Dosing at the 3 and 5 mg induced a dose responsive decline in the absolute number of peripheral blood B cells, T cells, NK cells, and all T cell subsets except TEM cells. Total peripheral blood lymphocyte (PBL) counts were reduced by 2-4 hours after dosing, reaching a nadir by hour 8 which persisted for 24 hours with recovery to baseline over the next 4 days. PBL counts were reduced by ˜40% and ˜55% at the 3 mg and 5 mg dose levels. […] These findings are therefore consistent with the anticipated pharmacodynamic effects of S1P receptor agonists in preclinical studies and in humans (Gergely et al., Br Pharmacol 167(5):1035-1047, 2012; Brossard et al., Br J Clin Pharmacol 2013 April 18. doi:10.1111/bcp.12129. [Epub ahead of print] PubMed PMID: 23594176, and Kovarik et al., J Clin Pharmacol 44(5):532-537, 2004.)

The conditions of data set [2]: in vivo.
In another data set the target is T2, OATP1B3 (Homo sapiens, UniProt Q9NPD5).
T2 construct: expressed in transfected cells; host or cells: HEK293
T2 sequence (Q9NPD5 1-702): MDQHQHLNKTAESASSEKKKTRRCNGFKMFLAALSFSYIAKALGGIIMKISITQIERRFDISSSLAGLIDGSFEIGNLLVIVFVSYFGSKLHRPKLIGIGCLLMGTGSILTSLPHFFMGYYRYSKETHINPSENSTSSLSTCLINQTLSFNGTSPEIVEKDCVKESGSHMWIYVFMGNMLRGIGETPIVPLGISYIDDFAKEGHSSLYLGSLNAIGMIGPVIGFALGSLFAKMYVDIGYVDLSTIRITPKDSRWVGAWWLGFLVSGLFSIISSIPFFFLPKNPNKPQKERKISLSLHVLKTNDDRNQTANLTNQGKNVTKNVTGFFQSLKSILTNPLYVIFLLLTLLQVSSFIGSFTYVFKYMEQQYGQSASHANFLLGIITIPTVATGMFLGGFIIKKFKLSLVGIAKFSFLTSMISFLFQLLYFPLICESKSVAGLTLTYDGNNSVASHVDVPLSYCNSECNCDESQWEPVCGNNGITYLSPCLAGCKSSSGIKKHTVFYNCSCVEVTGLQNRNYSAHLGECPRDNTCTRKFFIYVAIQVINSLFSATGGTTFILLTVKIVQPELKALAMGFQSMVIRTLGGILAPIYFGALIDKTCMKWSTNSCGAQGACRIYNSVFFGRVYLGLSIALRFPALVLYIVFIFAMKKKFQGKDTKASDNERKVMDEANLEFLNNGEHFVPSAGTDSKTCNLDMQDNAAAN
In words: Transporter inhibition, HEK293 cells. It is filed as in vitro ADME.

The target of data set [3] is T3, OAT3 (Homo sapiens, UniProt Q8TCC7).
T3 construct: expressed in transfected cells; host or cells: HEK293
T3 sequence (Q8TCC7 1-542): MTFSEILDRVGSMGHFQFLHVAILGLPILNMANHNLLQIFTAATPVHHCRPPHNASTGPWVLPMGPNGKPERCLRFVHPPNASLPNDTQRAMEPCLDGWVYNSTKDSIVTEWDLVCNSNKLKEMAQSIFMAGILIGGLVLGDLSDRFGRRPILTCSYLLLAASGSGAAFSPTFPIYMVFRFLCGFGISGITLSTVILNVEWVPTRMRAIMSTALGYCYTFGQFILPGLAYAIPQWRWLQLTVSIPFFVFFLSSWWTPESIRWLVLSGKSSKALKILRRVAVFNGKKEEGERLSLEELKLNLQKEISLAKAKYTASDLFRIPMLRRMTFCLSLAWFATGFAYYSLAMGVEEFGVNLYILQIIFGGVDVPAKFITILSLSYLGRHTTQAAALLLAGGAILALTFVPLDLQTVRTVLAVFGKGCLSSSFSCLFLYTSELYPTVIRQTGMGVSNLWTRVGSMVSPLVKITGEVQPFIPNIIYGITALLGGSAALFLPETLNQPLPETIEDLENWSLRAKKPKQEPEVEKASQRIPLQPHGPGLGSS
The experiment in a line: Transporter substrate evaluation, HEK293 cells. The class given is in vitro ADME. The note with it: 1 and 10 μM.

Data set [4] concerns the target T3, OAT3. The experiment in a line: Transporter inhibition, HEK293 cells. The class given is in vitro ADME.

Some results are limits rather than exact numbers.

P-gp, sequence (P08183 whole entry): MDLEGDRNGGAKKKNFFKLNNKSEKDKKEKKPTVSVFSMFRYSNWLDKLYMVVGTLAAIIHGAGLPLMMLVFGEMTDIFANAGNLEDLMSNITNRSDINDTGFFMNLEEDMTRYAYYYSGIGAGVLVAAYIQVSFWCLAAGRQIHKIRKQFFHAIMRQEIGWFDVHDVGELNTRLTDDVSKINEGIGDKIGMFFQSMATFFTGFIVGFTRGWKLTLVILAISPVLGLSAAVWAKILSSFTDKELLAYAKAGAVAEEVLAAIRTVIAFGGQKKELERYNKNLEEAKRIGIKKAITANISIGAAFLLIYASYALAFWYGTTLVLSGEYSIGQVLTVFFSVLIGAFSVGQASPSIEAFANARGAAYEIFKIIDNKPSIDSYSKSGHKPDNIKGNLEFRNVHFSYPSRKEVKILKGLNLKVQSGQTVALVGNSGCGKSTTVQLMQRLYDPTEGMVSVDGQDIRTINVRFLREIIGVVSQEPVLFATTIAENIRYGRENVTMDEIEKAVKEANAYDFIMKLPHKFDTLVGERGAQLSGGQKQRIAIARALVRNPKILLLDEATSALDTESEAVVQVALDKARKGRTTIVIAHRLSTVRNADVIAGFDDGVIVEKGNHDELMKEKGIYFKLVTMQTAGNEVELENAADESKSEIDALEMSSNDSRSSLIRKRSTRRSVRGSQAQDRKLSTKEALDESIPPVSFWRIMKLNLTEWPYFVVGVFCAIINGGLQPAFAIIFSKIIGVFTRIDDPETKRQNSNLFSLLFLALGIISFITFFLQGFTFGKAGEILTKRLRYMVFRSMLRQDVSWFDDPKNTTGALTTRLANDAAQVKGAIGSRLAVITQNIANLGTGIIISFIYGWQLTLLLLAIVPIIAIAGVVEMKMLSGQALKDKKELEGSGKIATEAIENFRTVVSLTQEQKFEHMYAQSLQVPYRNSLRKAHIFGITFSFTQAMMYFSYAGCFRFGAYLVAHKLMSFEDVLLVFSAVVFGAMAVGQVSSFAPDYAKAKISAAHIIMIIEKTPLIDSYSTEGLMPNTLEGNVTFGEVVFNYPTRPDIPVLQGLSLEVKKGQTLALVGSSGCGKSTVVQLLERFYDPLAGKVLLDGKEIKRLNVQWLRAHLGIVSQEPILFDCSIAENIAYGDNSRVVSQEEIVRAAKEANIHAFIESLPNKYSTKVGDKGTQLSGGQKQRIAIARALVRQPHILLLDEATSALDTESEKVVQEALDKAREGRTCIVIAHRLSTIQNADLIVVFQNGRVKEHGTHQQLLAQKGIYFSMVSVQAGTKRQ

Consider `O=C(O)C[C@H]1CCc2c1[nH]c1ccc(OCc3ccc(C4CCCC4)c(C(F)(F)F)c3)cc21` [Compound 1, (R)-2-(7-(4-cyclopentyl-3-(trifluoromethyl)benzyloxy)-1,2,3,4-tetrahydrocyclopenta[b]indol-3-yl)acetic acid], for which the OATP1B1 inhibition entry on OATP1B1 (1 μM Compound 1) is recorded as “no OATP1B1 inhibition”. Moreover, at OATP1B1 (10 μM Compound 1), the “Reduction of uptake rate of [3H]-estradiol-17β-glucuronide (50 nM) into OATP1B1-expressing cells” value is around 50%. Besides, the half-maximal inhibitory concentration (IC50) at P-gp was around 100 µM; at OATP1B3 (HEK293 cells, [3H]-estradiol-17β-glucuronide (50 nM), 1 and 10 μM tested) it was above 10 µM; on OAT3 [4] (HEK293 cells, [3H]-estrone-3-sulfate (50 nM), 1 and 10 μM tested) it was above 10 µM. Also, the “Reduction of PBL counts” value in data set [1] (3 mg single dose) is around 40%; in data set [1] (5 mg single dose) it was around 55%. In data set [1] (3 and 5 mg), the “Time after dosing by which total PBL counts were reduced” value is 2 to 4 h. Besides, the “Time of PBL nadir” value in data set [1] (3 and 5 mg, persisted for 24 hours) is at most 8 h. Also, in data set [1] (after nadir), the “Recovery of PBL counts to baseline” value amounted to 4 days. Also, the “Gender difference in mean plasma concentrations and exposure parameters” value in data set [2] is recorded as “only moderately higher in females compared to males”. The “Reduction of uptake rate of estradiol-17β-glucuronide into OATP1B3-expressing cells (inhibition)” value on OATP1B3 (1 and 10 μM) is recorded as “less than 50%”. Further, the “Potential substrate of OAT3” value at OAT3 [3] (HEK293 cells) is “not a substrate of OAT3 and not a substrate and No”. For the same molecule, on OAT3 [3] (absence and presence of probenecid (100 μM)), the “Uptake ratio into OAT3-expressing cells” value is “below two”. In addition, the “Reduction of uptake rate of estrone-3-sulfate into OAT3-expressing cells (inhibition)” value on OAT3 [4] (1 and 10 μM) was “less than 50%”.
